The molecules below were run against T1, recombinant human NK3 receptor (Homo sapiens, UniProt P29371) (assay: [3H]SR142801 competition binding assay).
T1 construct: expressed in transfected cells; host or cells: HEK293 cells, transient expression; membranes
T1 sequence (P29371 1-465): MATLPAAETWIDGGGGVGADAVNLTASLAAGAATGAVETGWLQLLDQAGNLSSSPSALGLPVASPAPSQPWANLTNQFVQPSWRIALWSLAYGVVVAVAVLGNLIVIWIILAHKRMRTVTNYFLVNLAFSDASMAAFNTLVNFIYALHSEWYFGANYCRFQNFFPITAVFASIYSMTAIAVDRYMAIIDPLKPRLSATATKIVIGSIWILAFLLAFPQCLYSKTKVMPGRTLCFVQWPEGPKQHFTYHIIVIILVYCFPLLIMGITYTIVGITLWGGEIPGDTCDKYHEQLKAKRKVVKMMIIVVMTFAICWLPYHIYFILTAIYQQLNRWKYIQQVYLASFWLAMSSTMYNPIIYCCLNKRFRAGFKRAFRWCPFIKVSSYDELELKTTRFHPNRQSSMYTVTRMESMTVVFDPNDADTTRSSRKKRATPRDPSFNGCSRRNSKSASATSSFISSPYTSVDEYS

Structure (SMILES) | Ki [nM]
CN(C(=O)Oc1ccc(F)cc1)[C@@H]1CN(C(=O)C2CCN(C(=O)CC#N)CC2)C[C@H]1c1ccc(Cl)c(Cl)c1 [Example 271, [(3S,4R)-1-[1-(2-Cyano-acetyl)-piperidine-4-carbonyl]-4-(3,4-dichloro-phenyl)-pyrrolidin-3-yl]-methyl-carbamic acid 4-fluoro-phenyl ester] | 0.1
CN(C(=O)Oc1ccc(F)cc1)[C@@H]1CN(C(=O)C2CCN(C(=O)C3(C#N)CC3)CC2)C[C@H]1c1ccc(Cl)c(Cl)c1 [Example 272, [(3S,4R)-1-[1-(1-Cyano-cyclopropanecarbonyl)-piperidine-4-carbonyl]-4-(3,4-dichloro-phenyl)-pyrrolidin-3-yl]-methyl-carbamic acid 4-fluoro-phenyl ester] | 0.8
CN(C(=O)Oc1ccc(F)cc1)[C@@H]1CN(C(=O)C2CCN(C(=O)C3(C(F)(F)F)CC3)CC2)C[C@H]1c1ccc(Cl)c(Cl)c1 [Example 273, {(3S,4R)-4-(3,4-Dichloro-phenyl)-1-[1-(1-trifluoromethyl-cyclopropanecarbonyl)-piperidine-4-carbonyl]-pyrrolidin-3-yl}-methyl-carbamic acid 4-fluoro-phenyl ester] | 0.4
CN(C(=O)Oc1ccc(F)cc1)[C@@H]1CN(C(=O)C2CCN(C(=O)C3CC3(F)F)CC2)C[C@H]1c1ccc(Cl)c(Cl)c1 (stereo partly drawn) [Example 274, {(3S,4R)-4-(3,4-Dichloro-phenyl)-1-[1-(2,2-difluoro-cyclopropanecarbonyl)-piperidine-4-carbonyl]-pyrrolidin-3-yl}-methyl-carbamic acid 4-fluoro-phenyl ester] | 0.9
CN(C(=O)Oc1ccc(F)cc1)[C@@H]1CN(C(=O)C2CCN(C(=O)C3CCOCC3)CC2)C[C@H]1c1ccc(Cl)c(Cl)c1 [Example 275, {(3S,4R)-4-(3,4-Dichloro-phenyl)-1-[1-(tetrahydro-pyran-4-carbonyl)-piperidine-4-carbonyl]-pyrrolidin-3-yl}-methyl-carbamic acid 4-fluoro-phenyl ester] | 0.9
CN(C(=O)Oc1ccc(F)cc1)[C@@H]1CN(C(=O)C2CCN(C(=O)C3CCOC(C)(C)C3)CC2)C[C@H]1c1ccc(Cl)c(Cl)c1 (stereo partly drawn) [Example 276, {(3S,4R)-4-(3,4-Dichloro-phenyl)-1-[1-(2,2-dimethyl-tetrahydro-pyran-4-carbonyl)-piperidine-4-carbonyl]-pyrrolidin-3-yl}-methyl-carbamic acid 4-fluoro-phenyl ester] | 1
COCC1(C(=O)N2CCC(C(=O)N3C[C@@H](N(C)C(=O)Oc4ccc(F)cc4)[C@H](c4ccc(Cl)c(Cl)c4)C3)CC2)CC1 [Example 277, {(3S,4R)-4-(3,4-Dichloro-phenyl)-1-[1-(1-methoxymethyl-cyclopropanecarbonyl)-piperidine-4-carbonyl]-pyrrolidin-3-yl}-methyl-carbamic acid 4-fluoro-phenyl ester] | 0.5
CN(C(=O)Oc1ccc(F)cc1)[C@@H]1CN(C(=O)C2CCN(C(=O)C3CC3(C)C)CC2)C[C@H]1c1ccc(Cl)c(Cl)c1 (stereo partly drawn) [Example 278, {(3S,4R)-4-(3,4-Dichloro-phenyl)-1-[1-(2,2-dimethyl-cyclopropanecarbonyl)-piperidine-4-carbonyl]-pyrrolidin-3-yl}-methyl-carbamic acid 4-fluoro-phenyl ester] | 0.6
CN(C(=O)Oc1ccc(F)cc1)[C@@H]1CN(C(=O)C2CCN(C(=O)c3ccc(C(F)(F)F)cn3)CC2)C[C@H]1c1ccc(Cl)c(Cl)c1 [Example 279, {(3S,4R)-4-(3,4-Dichloro-phenyl)-1-[1-(5-trifluoromethyl-pyridine-2-carbonyl)-piperidine-4-carbonyl]-pyrrolidin-3-yl}-methyl-carbamic acid 4-fluoro-phenyl ester] | 2
CN(C(=O)Oc1ccc(F)cc1)[C@@H]1CN(C(=O)C2CCN(C(=O)c3ccc(F)cn3)CC2)C[C@H]1c1ccc(Cl)c(Cl)c1 [Example 280, {(3S,4R)-4-(3,4-Dichloro-phenyl)-1-[1-(5-fluoro-pyridine-2-carbonyl)-piperidine-4-carbonyl]-pyrrolidin-3-yl}-methyl-carbamic acid 4-fluoro-phenyl ester] | 0.8
CN(C(=O)Oc1ccc(F)cc1)[C@@H]1CN(C(=O)C2CCN(C(=O)C3CCC(=O)NC3)CC2)C[C@H]1c1ccc(Cl)c(Cl)c1 (stereo partly drawn) [Example 281, {(3S,4R)-4-(3,4-Dichloro-phenyl)-1-[1-(6-oxo-piperidine-3-carbonyl)-piperidine-4-carbonyl]-pyrrolidin-3-yl}-methyl-carbamic acid 4-fluoro-phenyl ester] | 0.3
CC(C)N1CC(C(=O)N2CCC(C(=O)N3C[C@@H](N(C)C(=O)Oc4ccc(F)cc4)[C@H](c4ccc(Cl)c(Cl)c4)C3)CC2)CCC1=O (stereo partly drawn) [Example 282, {(3S,4R)-4-(3,4-Dichloro-phenyl)-1-[1-(1-isopropyl-6-oxo-piperidine-3-carbonyl)-piperidine-4-carbonyl]-pyrrolidin-3-yl}-methyl-carbamic acid 4-fluoro-phenyl ester] | 2
CC(=O)N1CCC(C(=O)N2C[C@@H](N(C)C(=O)Oc3ccc(F)cc3)[C@H](c3ccc(Cl)c(Cl)c3)C2)CC1 [Example 283, [(3S,4R)-1-(1-Acetyl-piperidine-4-carbonyl)-4-(3,4-dichloro-phenyl)-pyrrolidin-3-yl]-methyl-carbamic acid 4-fluoro-phenyl ester] | 0.7
CN(C(=O)Oc1ccc(F)cc1)[C@@H]1CN(C(=O)C2CCN(C(=O)CC#N)CC2)C[C@H]1c1ccc(F)cc1 [Example 284, [(3S,4R)-1-[1-(2-Cyano-acetyl)-piperidine-4-carbonyl]-4-(4-fluoro-phenyl)-pyrrolidin-3-yl]-methyl-carbamic acid 4-fluoro-phenyl ester] | 31.1
CC(=O)N1CCC(C(=O)N2C[C@@H](N(C)C(=O)Oc3ccc(F)cc3)[C@H](c3ccc(F)cc3)C2)CC1 [Example 285, [(3S,4R)-1-(1-Acetyl-piperidine-4-carbonyl)-4-(4-fluoro-phenyl)-pyrrolidin-3-yl]-methyl-carbamic acid 4-fluoro-phenyl ester] | 19.1
CN(C(=O)Oc1ccc(F)cc1)[C@@H]1CN(C(=O)C2CCN(C(=O)C3(C)COC3)CC2)C[C@H]1c1ccc(F)cc1 [Example 286, {(3S,4R)-4-(4-Fluoro-phenyl)-1-[1-(3-methyl-oxetane-3-carbonyl)-piperidine-4-carbonyl]-pyrrolidin-3-yl}-methyl-carbamic acid 4-fluoro-phenyl ester] | 25.4
CN(C(=O)Oc1ccc(F)cc1)[C@@H]1CN(C(=O)C2CCN(C(=O)C3CC(F)C3)CC2)C[C@H]1c1ccc(F)cc1 (stereo partly drawn) [Example 287, [(3S,4R)-1-[1-(3-Fluoro-cyclobutanecarbonyl)-piperidine-4-carbonyl]-4-(4-fluoro-phenyl)-pyrrolidin-3-yl]-methyl-carbamic acid 4-fluoro-phenyl ester] | 7.2
CN(C(=O)Oc1ccc(F)cc1)[C@@H]1CN(C(=O)C2CCN(C(=O)C3(C#N)CC3)CC2)C[C@H]1c1ccc(F)cc1 [Example 288, [(3S,4R)-1-[1-(1-Cyano-cyclopropanecarbonyl)-piperidine-4-carbonyl]-4-(4-fluoro-phenyl)-pyrrolidin-3-yl]-methyl-carbamic acid 4-fluoro-phenyl ester] | 26.6
CN(C(=O)Oc1ccc(F)cc1)[C@@H]1CN(C(=O)C2CCN(C(=O)C3(C(F)(F)F)CCC3)CC2)C[C@H]1c1ccc(F)cc1 [Example 289, {(3S,4R)-4-(4-Fluoro-phenyl)-1-[1-(1-trifluoromethyl-cyclobutanecarbonyl)-piperidine-4-carbonyl]-pyrrolidin-3-yl}-methyl-carbamic acid 4-fluoro-phenyl ester] | 11
CN(C(=O)Oc1ccc(F)cc1)[C@@H]1CN(C(=O)C2CCN(C(=O)c3ccc(C(F)(F)F)cn3)CC2)C[C@H]1c1ccc(F)cc1 [Example 290, {(3S,4R)-4-(4-Fluoro-phenyl)-1-[1-(5-trifluoromethyl-pyridine-2-carbonyl)-piperidine-4-carbonyl]-pyrrolidin-3-yl}-methyl-carbamic acid 4-fluoro-phenyl ester] | 99.8
CN(C(=O)Oc1ccc(F)cc1)[C@@H]1CN(C(=O)C2CCN(C(=O)C3CCC(=O)NC3)CC2)C[C@H]1c1ccc(F)cc1 (stereo partly drawn) [Example 291, {(3S,4R)-4-(4-Fluoro-phenyl)-1-[1-(6-oxo-piperidine-3-carbonyl)-piperidine-4-carbonyl]-pyrrolidin-3-yl}-methyl-carbamic acid 4-fluoro-phenyl ester] | 144
CN(C(=O)Oc1ccc(F)cc1)[C@@H]1CN(C(=O)C2CCN(C(=O)[C@@H]3CC(=O)N3)CC2)C[C@H]1c1ccc(Cl)c(Cl)c1 [Example 292, {(3S,4R)-4-(3,4-Dichloro-phenyl)-1-[1-((S)-4-oxo-azetidine-2-carbonyl)-piperidine-4-carbonyl]-pyrrolidin-3-yl}-methyl-carbamic acid 4-fluoro-phenyl ester] | 0.04
Cc1cc(OC(=O)N(C)[C@@H]2CN(C(=O)C3CCN(C(=O)C4(C)CC4)CC3)C[C@H]2c2ccc(Cl)c(Cl)c2)cc(C)n1 [Example 294, {(3S,4R)-4-(3,4-Dichloro-phenyl)-1-[1-(1-methyl-cyclopropanecarbonyl)-piperidine-4-carbonyl]-pyrrolidin-3-yl}-methyl-carbamic acid 2,6-dimethyl-pyridin-4-yl ester] | 11.2

Reference: patent US9226916B2, “Pyrrolidine derivatives” (HOFFMANN-LA ROCHE INC., priority 2009, dated 2016)
